Results taken from US12162885B2, “Crystal form of Xevinapant for treating LA SCCHN” (CRYSTAL PHARMACEUTICAL (SUZHOU) CO., LTD., priority 2022, dated 2024).
Entries after “also recorded” stand apart in the source; their conditions may differ.

What was measured:
[1] = Stability of crystalline form in the formulation process (XRPD); type: physicochemical; conditions: formulation of Table 9, process of Table 10
Procedure: An XRPD of blank prescription (excipients) and the samples before and after the formulation were tested, and result is shown in FIG. 24. […] [table] [table] An XRPD of Blank prescription (excipients) and Form CSII before and after the formulation were tested, and result is shown in FIG. 28.

Hygroscopicity by DVS = type: physicochemical; conditions: from 0% RH to 80% RH
Procedure: Dynamic Vapor Sorption (DVS) was measured via an SMS (Surface Measurement Systems Ltd.) intrinsic DVS instrument. The instrument control software is DVS-Intrinsic control software. Typical Parameters for DVS test are as follows: • Temperature: 25° C. • Gas and flow rate: N2, 200 mL/min • dm/dt: 0.002%/min • RH range: 0% RH-95% RH DVS analyzer was applied to evaluate the hygroscopicity of Form CSI with about 10 mg of sample. […] DVS analyzer was applied to evaluate the hygroscopicity of Form CSII with about 10 mg of sample.

[2] = Storage stability of drug substance with open package (HPLC purity, XRPD form, appearance); type: physicochemical
Procedure: An appropriate amount of Form CSI was packaged with corresponding condition, and then stored with open package under 25° C./60% RH, 40° C./75% RH and 60° C./75% RH conditions for a period. Appropriate amounts of prior art solids were packaged with corresponding condition, and then stored with open package under 25° C./60% RH and 60° C./75% RH conditions for a period. Chemical purity and crystalline form were checked by HPLC and XRPD, respectively. The appearance comparison of prior art solid A and Solid B before and after storage are shown in FIG. 19 and FIG. 20, respectively.
Open: Put the sample into a glass vial, cover the vial with aluminum foil, and punch 5-10 holes in the foil.
An appropriate amount of Form CSII and prior art solids were packaged with corresponding conditions, and then stored with open package under 25° C./60% RH and 60° C./75% RH for a period. Chemical purity and crystalline form were checked by HPLC and XRPD, respectively. The appearance comparison of prior art solid A and Solid B before and after storage are shown in FIG. 19 and FIG. 20, respectively.

[3] = Stability upon mechanical force (ball milling, tableting; XRPD); type: physicochemical; conditions: for Crystalline form before and after tableting (XRPD): manual tablet press, 20 kN, 6 mm round tooling; for Crystal form before and after ball milling (XRPD): milled 5 min at 500 rpm in a ball mill
Procedure: Form CSI was milled for 5 min at a vibration speed of 500 rpm in a ball mill. The sample before and after ball milling were checked by XRPD. […] An appropriate amount of Form CSI was compressed into a tablet using a manual tablet press under a pressure of 20 kN with a ϕ6 mm round tooling. Crystalline form before and after tableting were checked by XRPD. […] Form CSII was milled for 5 min at a vibration speed of 500 rpm in a ball mill. The sample before and after ball milling were checked by XRPD. […] An appropriate amount of Form CSII was compressed into a tablet using a manual tablet press under a pressure of 20 kN with a @6 mm round tooling. Crystalline form before and after tableting were checked by XRPD.

[4] = Humidity stability test with DVS analyzer; type: physicochemical; conditions: DVS 0% RH-95% RH
Procedure: Dynamic Vapor Sorption (DVS) was measured via an SMS (Surface Measurement Systems Ltd.) intrinsic DVS instrument. The instrument control software is DVS-Intrinsic control software. Typical Parameters for DVS test are as follows: • Temperature: 25° C. • Gas and flow rate: N2, 200 mL/min • dm/dt: 0.002%/min • RH range: 0% RH-95% RH
DVS analyzer was applied to evaluate the humidity stability of prior art solids, Form CSI and Form CSII. The appearance of Form CSI before and after humidity stability test is shown in FIG. 12, and an XRPD pattern of Form CSI before and after test is shown in FIG. 13. The appearance of Form CSII before and after humidity stability test is shown in FIG. 14, and an XRPD pattern of Form CSII before and after test is shown in FIG. 15.

LA SCCHN = conditions: phase 2 clinical trial, combination with CRT compared to CRT alone; cited from earlier work
[5] = Initial (baseline of storage stability)

Weight gain (Hygroscopicity by DVS) [%] | Appearance ([2]; Initial) | Form ([2]; Initial) | Crystalline form before and after tableting (XRPD) [3] | Crystal form before and after ball milling (XRPD) [3] | Appearance after test [4] | Crystal change before and after humidity stability test (XRPD) [4] | Purity [2, 5] [%] | Appearance ([2]; 25° C./60% RH, Open, 1 month) | Form ([2]; 25° C./60% RH, Open, 1 month) | Purity ([2]; 25° C./60% RH, Open, 1 month) [%] | Appearance ([2]; 60° C./75% RH, Open, 1 week) | Form ([2]; 60° C./75% RH, Open, 1 week) | SMILES | Crystalline form before and after the formulation process (XRPD) [1] | other results
1.16 | Powder | Form CSII | kept stable after tableting | keeps stable after ball milling | Powder | no crystal change |  |  |  |  |  |  | CN[C@@H](C)C(=O)N[C@H]1CN(C(=O)CC(C)C)CC[C@H]2CC[C@@H](C(=O)NC(c3ccccc3)c3ccccc3)N2C1=O [Form CSII] | keeps stable before and after the formulation process | Physical stability ([2]; 60° C./75% RH open condition): keeps physically stable for at least four weeks; Appearance ([2]; 60° C./75% RH, Open, 4 weeks): Powder; Form ([2]; 60° C./75% RH, Open, 4 weeks): No crystal change; also recorded: Form CSII
0.46 | Powder | Form CSI | keeps stable after tableting | No crystal change | Powder | no crystal change | 99.50 |  |  |  |  |  | CN[C@@H](C)C(=O)N[C@H]1CN(C(=O)CC(C)C)CC[C@H]2CC[C@@H](C(=O)NC(c3ccccc3)c3ccccc3)N2C1=O [Form CSI] | keeps stable before and after the formulation process | Time stable ([2]; 25° C./60% RH open condition): at least 6 months; Appearance ([2]; 25° C./60% RH, Open, 6 months): Powder; Form ([2]; 25° C./60% RH, Open, 6 months): Form CSI; Purity ([2]; 25° C./60% RH, Open, 6 months): 99.45%; Time stable ([2]; 40° C./75% RH open condition): at least 6 months; Appearance ([2]; 40° C./75% RH, Open, 6 months): Powder; Form ([2]; 40° C./75% RH, Open, 6 months): Form CSI; Purity ([2]; 40° C./75% RH, Open, 6 months): 99.45%; Time stable ([2]; 60° C./75% RH open condition): at least 3 months; Appearance ([2]; 60° C./75% RH, Open, 3 months): Powder; Form ([2]; 60° C./75% RH, Open, 3 months): Form CSI
 | Powder | Amorphous |  |  | Transparent solid |  | 98.77 | Powder | Amorphous | 98.65 | Gel | Gel | CN[C@@H](C)C(=O)N[C@H]1CN(C(=O)CC(C)C)CC[C@H]2CC[C@@H](C(=O)NC(c3ccccc3)c3ccccc3)N2C1=O.Cl [Prior art Solid A, reference compound] |  | 
 | Powder | Amorphous |  |  | Transparent solid |  | 98.87 | Powder | Amorphous | 98.73 | Gel | Gel | CN[C@@H](C)C(=O)N[C@H]1CN(C(=O)CC(C)C)CC[C@H]2CC[C@@H](C(=O)NC(c3ccccc3)c3ccccc3)N2C1=O.O=C(O)C(F)(F)F [Prior art Solid B, reference compound] |  | 
 |  |  |  |  |  |  |  |  |  |  |  |  | CN[C@@H](C)C(=O)N[C@H]1CN(C(=O)CC(C)C)CC[C@H]2CC[C@@H](C(=O)NC(c3ccccc3)c3ccccc3)N2C1=O [Xevinapant, (5S,8S,10aR)—N-benzhydryl-5-((S)-2-(methylamino)propanamido)-3-(3-methylbutanoyl)-6-oxodecahydropyrrolo[l,2-a][l,5]diazocine-8-carboxamide] |  | Efficacy in treating patients with LA SCCHN (LA SCCHN): demonstrated efficacy
